Patent US20030171544A1, “Alcohol dehydrogenase and use thereof” (DEGUSSA AG, priority 2001, published 2003)
Marks after values point to notes of the source that are not given here.

Tested on: alcohol dehydrogenase (ADHF1)
Assay: Reduction of ketones with lyophilized recombinant ADHF1 crude extract, GC analysis
Format: biochemical, Pseudomonas fluorescens (DSM 50106)
Conditions: for Conversion: Table 1, GC analysis, 6.4 μmol substrate, 1.25 mg enzyme crude extract, 0.1 M Tris pH 8.0, 20% (v/v) isopropanol, room temperature, time 20-21 h
Protocol: The activity of lyophilized alcohol dehydrogenase is determined using acetophenone as model substrate. The standardized reaction mixture (250 μl) contains 6.4 μmol of substrate dissolved in isopropanol, 1.25 mg of enzyme (crude extract) in 0.1 M Tris buffer (pH 8.0) and 20% (v/v) isopropanol as substrate for NADH-recycling dehydrogenase. The reactions are carried out at room temperature, unless explicitly stated otherwise. All values were determined three times. After the reaction has finished, the reaction mixture is extracted with twice the amount of chloroform and the organic phase is then dried over sodium sulfate. The reaction products were analyzed isothermally at 120° C. by GC measurements (Shimadzu GC 14A, Tokyo, flame ionization detector, integrator C5RA) using a chiral column (heptakis (2,6-O-methyl-3-O-pentyl)-β-cyclodextrin, 25m×0.25mm ID, Macherey & Nagel, Düren). The retention times are 1.55 min for acetophenone, 2.77 min for (R)-α-phenylethanol and 2.99 min for (S)-α-phenylethanol. The absolute configuration was determined by using commercial standards. Further GC analyses were carried out at a temperature rising from 90° C. to 120° C. at a rate of 5° C./min. Here the retention times were 0.95 min for cyclopentanone, 1.37 min for cyclopentanol, 2.85 min for cycloheptanone, 4.29 min for cycloheptanol, 1.42 min for cyclohexanone and 2.12 min for cyclohexanol.

SMILES | Conversion | yield of (R)-α-phenylethanol (conversion of acetophenone by ADHF1) [%]
O=C1CCCCCC1 [Cycloheptanone] | 51% | –
O=C1CCCCC1 [Cyclohexanone] | 100% | –
O=C1CCCC1 [Cyclopentanone] | 53% | –
CC(=O)c1ccccc1 [Substrate 1, acetophenone] | 95^b % | 95
